In PMC7897990, “TriTOX: A novel Trichomonas vaginalis assay platform for high-throughput screening of compound libraries” (International Journal for Parasitology: Drugs and Drug …, 2021):

What was measured:
T. vaginalis [1] = assay: Medium-throughput (MTS) confirmatory dose-response growth assay, T. vaginalis; format: cell-based, Trichomonas vaginalis; details: Trichomonas vaginalis; 96-well, 10,000 cells/mL in 50 μL, 48 h, mean ± SEM; >10 = no appreciable activity at highest dose
Procedure: (§1) For microtiter plate assays, trichomonads were grown in anaerobic conditions within GasPak EZ anaerobe pouches with fresh anaerobic sachets. Working reagent of the chromogen was phenol red (Sigma) in a 1% w/v working solution in phosphate buffered saline (PBS), which was filter sterilised. Chromogen absorbance was monitored at 570 nm on an absorbance microplate reader after plates were allowed to equilibrate in atmospheric conditions at room temperature for at least 5 min.
(§2) After absorbances were measured, data were processed as followed unless indicated otherwise in the text. […] Prism 8 (GraphPad) was used to plot dose-response curves and calculate IC50 values, using a least squares regression, log[inhibitor] vs normalised response (variable slope, four parameters) model. Where replicate plates were used, data for dose-response curves were plotted as the mean±SD of these replicates.
(§3) A selection of 17 compounds assayed in the high-throughput screen (HTS) for T. vaginalis which were available through BioAustralis were obtained for validation of inhibitory in/activity in our optimised medium-throughput format. For this, a 10-point serial dilution was used for drug-susceptibility testing to calculate IC50 values of ‘hit’ compounds. Mtz was used as a positive control. Each screen was performed with 3 technical replicates and a minimum of 2 biological replicates in both T. vaginalis and T. foetus using assay conditions of seeds of 10,000 cells/mL in 50 μL, with absorbance measured at 48 h. Dose response curves and IC50 were calculated for each compound as described above in Section 2.3.

T. foetus [2] = assay: Medium-throughput (MTS) confirmatory dose-response growth assay, T. foetus; format: cell-based, Tritrichomonas foetus; details: Tritrichomonas foetus; 96-well, 10,000 cells/mL in 50 μL, 48 h, mean ± SEM; >10 = no appreciable activity at highest dose
Procedure: as §1, §2, §3

T. vaginalis [3] = assay: Pre-optimisation Mtz drug-sensitivity testing, 96-well, T. vaginalis; format: cell-based; details: Trichomonas vaginalis
Procedure: as §1, §2
(§4) Trichomonad growth assays were assessed via Mtz drug-sensitivity testing in a medium throughput format (96-wells). Mtz was screened as two-fold, 10-point dilutions between 100 and 0.2 μM. For both T. foetus and T. vaginalis conditions were 5% (v/v) chromogen, well volumes of 100 μL and 200 μL and seeds of 10,000 and 20,000 cells/mL, and absorbance measured at 40 and 65 h. Mtz dose-response curves were plotted and Mtz IC50 calculated for both species, as well as the Z′ for each combination of conditions (volume, seed, timepoint) based on 4 technical replicates as described in Section 2.3.

T. foetus [4] = assay: Pre-optimisation Mtz drug-sensitivity testing, 96-well, T. foetus; format: cell-based; details: Tritrichomonas foetus
Procedure: as §1, §2, §4

T. vaginalis [5] = assay: Miniaturised Mtz drug-sensitivity assay, 96-well plates; format: cell-based; details: Trichomonas vaginalis
Procedure: as §1, §2
(§5) Miniaturised assay formats were assessed via Mtz drug-sensitivity for T. vaginalis in 96-well and 384-well plate formats using 5% (v/v) chromogen. For medium-throughput formats, seeds of 15,000 and 50,000 cells/mL were used in well volumes of 50 μL and 100 μL. For high-throughput formats, 25 μL well volumes were evaluated using seeds of 10,000, 20,000 and 40,000 cells/mL, while 50 μL well volumes used seeds of 5000, 10,000 and 20,000 cells/mL.

T. vaginalis [6] = assay: Miniaturised Mtz drug-sensitivity assay, 384-well plates; format: cell-based; details: Trichomonas vaginalis
Procedure: as §1, §2, §5

Cc1ncc([N+](=O)[O-])n1CCO [Metronidazole]
IC50 (T. vaginalis [1]): 1.4 ± 0.2 µM
IC50 (T. foetus [2]): 1.2 ± 0.1 µM
IC50 (T. vaginalis [3]; 40 h, Cα: 10 cells/µL, 100 µL, 40 h, read-out: Mtz IC50 T. vaginalis): 1630 nM
IC50 (T. vaginalis [3]; 40 h, Cβ: 20 cells/µL, 100 µL, 40 h, read-out: Mtz IC50 T. vaginalis): 2640 nM
IC50 (T. vaginalis [3]; 40 h, Cγ: 10 cells/µL, 200 µL, 40 h, read-out: Mtz IC50 T. vaginalis): 1630 nM
IC50 (T. vaginalis [3]; 40 h, Cδ: 20 cells/µL, 200 µL, 40 h, read-out: Mtz IC50 T. vaginalis): 2160 nM
IC50 (T. vaginalis [3]; 40 h, pre-optimisation, 40 h, read-out: Mtz IC50 T. vaginalis, across conditions): 2000 ± 200 nM
IC50 (T. vaginalis [3]; 65 h, Cα: 10 cells/µL, 100 µL, 65 h, read-out: Mtz IC50 T. vaginalis): 3090 nM
IC50 (T. vaginalis [3]; 65 h, Cβ: 20 cells/µL, 100 µL, 65 h, read-out: Mtz IC50 T. vaginalis): 3210 nM
IC50 (T. vaginalis [3]; 65 h, Cγ: 10 cells/µL, 200 µL, 65 h, read-out: Mtz IC50 T. vaginalis): 2670 nM
IC50 (T. vaginalis [3]; 65 h, Cδ: 20 cells/µL, 200 µL, 65 h, read-out: Mtz IC50 T. vaginalis): 3190 nM
IC50 (T. vaginalis [3]; 65 h, pre-optimisation, 65 h, read-out: Mtz IC50 T. vaginalis, across conditions): 3000 ± 100 nM
IC50 (T. foetus [4]; 40 h, Cα: 10 cells/µL, 100 µL, 40 h, read-out: Mtz IC50 T. foetus): 1170 nM
IC50 (T. foetus [4]; 40 h, Cβ: 20 cells/µL, 100 µL, 40 h, read-out: Mtz IC50 T. foetus): 1310 nM
IC50 (T. foetus [4]; 40 h, Cγ: 10 cells/µL, 200 µL, 40 h, read-out: Mtz IC50 T. foetus): 1190 nM
IC50 (T. foetus [4]; 40 h, Cδ: 20 cells/µL, 200 µL, 40 h, read-out: Mtz IC50 T. foetus): 1230 nM
IC50 (T. foetus [4]; 40 h, pre-optimisation, 40 h, read-out: Mtz IC50 T. foetus, across conditions): 1200 nM
IC50 (T. foetus [4]; 65 h, Cα: 10 cells/µL, 100 µL, 65 h, read-out: Mtz IC50 T. foetus): 2170 nM
IC50 (T. foetus [4]; 65 h, Cβ: 20 cells/µL, 100 µL, 65 h, read-out: Mtz IC50 T. foetus): 2700 nM
IC50 (T. foetus [4]; 65 h, Cγ: 10 cells/µL, 200 µL, 65 h, read-out: Mtz IC50 T. foetus): 2070 nM
IC50 (T. foetus [4]; 65 h, Cδ: 20 cells/µL, 200 µL, 65 h, read-out: Mtz IC50 T. foetus): 2380 nM
IC50 (T. foetus [4]; 65 h, pre-optimisation, 65 h, read-out: Mtz IC50 T. foetus, across conditions): 2300 ± 100 nM
IC50 (T. vaginalis [5]; 24 h, C2: 96-well, 50 cells/µL, 50 µL, 24 h): 2180 nM
IC50 (T. vaginalis [5]; 24 h, C3: 96-well, 15 cells/µL, 100 µL, 24 h): 2910 nM
IC50 (T. vaginalis [5]; 24 h, C4: 96-well, 50 cells/µL, 100 µL, 24 h): 2230 nM
IC50 (T. vaginalis [5]; 36 h, C1: 96-well, 15 cells/µL, 50 µL, 36 h): 1160 nM
IC50 (T. vaginalis [5]; 36 h, C2: 96-well, 50 cells/µL, 50 µL, 36 h): 3740 nM
IC50 (T. vaginalis [5]; 36 h, C3: 96-well, 15 cells/µL, 100 µL, 36 h): 1340 nM
IC50 (T. vaginalis [5]; 36 h, C4: 96-well, 50 cells/µL, 100 µL, 36 h): 3450 nM
IC50 (T. vaginalis [5]; 48 h, C1: 96-well, 15 cells/µL, 50 µL, 48 h): 1580 nM
IC50 (T. vaginalis [5]; 48 h, C2: 96-well, 50 cells/µL, 50 µL, 48 h): 3490 nM
IC50 (T. vaginalis [5]; 48 h, C3: 96-well, 15 cells/µL, 100 µL, 48 h): 1960 nM
IC50 (T. vaginalis [5]; 48 h, C4: 96-well, 50 cells/µL, 100 µL, 48 h): 5010 nM
IC50 (T. vaginalis [6]; 24 h, C5: 384-well, 250 cells/well, 25 µL, 24 h): 1220 nM
IC50 (T. vaginalis [6]; 24 h, C6: 384-well, 500 cells/well, 25 µL, 24 h): 2020 nM
IC50 (T. vaginalis [6]; 24 h, C7: 384-well, 1000 cells/well, 25 µL, 24 h): 3210 nM
IC50 (T. vaginalis [6]; 24 h, C8: 384-well, 250 cells/well, 50 µL, 24 h): 759 nM
IC50 (T. vaginalis [6]; 24 h, C9: 384-well, 500 cells/well, 50 µL, 24 h): 1360 nM
IC50 (T. vaginalis [6]; 24 h, C10: 384-well, 1000 cells/well, 50 µL, 24 h): 2330 nM
IC50 (T. vaginalis [6]; 36 h, C5: 384-well, 250 cells/well, 25 µL, 36 h): 623 nM
IC50 (T. vaginalis [6]; 36 h, C6: 384-well, 500 cells/well, 25 µL, 36 h): 888 nM
IC50 (T. vaginalis [6]; 36 h, C7: 384-well, 1000 cells/well, 25 µL, 36 h): 1890 nM
IC50 (T. vaginalis [6]; 36 h, C8: 384-well, 250 cells/well, 50 µL, 36 h): 672 nM
IC50 (T. vaginalis [6]; 36 h, C9: 384-well, 500 cells/well, 50 µL, 36 h): 703 nM
IC50 (T. vaginalis [6]; 36 h, C10: 384-well, 1000 cells/well, 50 µL, 36 h): 893 nM
IC50 (T. vaginalis [6]; 48 h, C5: 384-well, 250 cells/well, 25 µL, 48 h): 1550 nM
IC50 (T. vaginalis [6]; 48 h, C6: 384-well, 500 cells/well, 25 µL, 48 h): 2900 nM
IC50 (T. vaginalis [6]; 48 h, C7: 384-well, 1000 cells/well, 25 µL, 48 h): 4310 nM
IC50 (T. vaginalis [6]; 48 h, C8: 384-well, 250 cells/well, 50 µL, 48 h): 1340 nM
IC50 (T. vaginalis [6]; 48 h, C9: 384-well, 500 cells/well, 50 µL, 48 h): 1500 nM
IC50 (T. vaginalis [6]; 48 h, C10: 384-well, 1000 cells/well, 50 µL, 48 h): 3030 nM
